Measured values taken from patent publication US20190315806A1, “POLYMYXIN DERIVATIVE, PREPARATION METHOD AND APPLICATION THEREOF” (priority 2016, published 2019).
Converted amounts (≈) assume the structure as drawn. Where a SMILES comes first, the peptide text is derived from it. Bridges are numbered along the chain shown (N, C = ends). [ ]: non-standard residue; d: D form. The star is where a group is joined. dPhe(4-CN) = N#Cc1ccc(C[C@@H](N)C(=O)O)cc1; Heptanoyl(6-Me) = CC(C)CCCCC(=O)*; X2 = CC[C@H](C)CCCCC(=O)*; dDab = NCC[C@@H](N)C(=O)O; Dab = NCC[C@H](N)C(=O)O; X1 = CCCCCC(=O)CC(=O)*

Experiments:
Assay type in all cases: cell-based
[1] = test system: Acinetobacter baumannii ATCC 19606; settings: ATCC 19606
Outline: (§1)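 MIC by CLSI agar two-fold dilution: compounds at final 0.03–128 μg/mL in agar, strains inoculated at 10^4 CFU/dot by multipoint inoculator. Incubation 18–24 h at 35 °C; MIC is the lowest concentration giving no colony growth.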

[2] = test system: Escherichia coli ATCC 25922; settings: ATCC 25922
Outline: as §1

[3] = test system: Pseudomonas aeruginosa ATCC 27853; settings: ATCC 27853
Outline: as §1

[4] = test system: Staphylococcus epidermidis ATCC 12228; settings: ATCC 12228
Outline: as §1

[5] = test system: Klebsiella pneumoniae ATCC BAA-2146 (NDM-1); assay: Antibacterial activity, MIC by dish double dilution method; settings: ATCC BAA-2146
Outline: as §1

[6] = Nephrotoxicity test, renal cytotoxicity by MTT method; settings: African green monkey
Description: African green monkey kidney cells (Vero cells) were cultured in MEM medium (Hyclone), 10% fetal calf serum (Invitrogen) was added before use, cultured at 37° C. under 5% CO2.
Experiment was carried out using MTT method. After digestion, cells in logarithmic growth phase were counted, then the cells were inoculated in a 96-well culture plate. After incubation for 24 h to be adherent, cells were treated with a concentration gradient of a compound of the invention (e.g., a compound prepared in the Embodiments) and the controls. After 72 h, the culture solution was removed, 100 uL of MTT reagent at a concentration of 0.5 mg/ml was added, the medium was removed after incubating for 3 hours in a 37° C. incubator. Add 150 μL DMSO solvent to each well, mix for 3 min, after which the absorbance at 570 nm (A) was measured with a microplate reader.
Cell viability %=(Adosed cell−Abackground)/(Acontrol cell−Abackground)×100%. The average value of 3 parallel wells was taken for each detection point, and the inhibition curve was drawn to calculate the IC50 value.
The African green monkey kidney cells (Vero cells) used in the experiment were from the Cell Resource Center of the Institute of Basic Medicine, Chinese Academy of Medical Sciences.

Structure (SMILES): CC[C@H](C)CCCCC(=O)N[C@@H](CCN)C(=O)N[C@H](C(=O)N[C@H](CO)C(=O)N[C@H]1CCNC(=O)[C@H]([C@@H](C)O)NC(=O)[C@H](CCN)NC(=O)[C@H](CCN)NC(=O)[C@H]([C@@H](C)O)NC(=O)[C@@H](Cc2ccccc2)NC(=O)[C@H](CCN)NC1=O)[C@@H](C)O [Compound 115, (S)-6-methyloctanoyl-Dab-Thr-D-Ser-ring(4-10)[Dab-Dab-D-Phe-Thr-Dab-Dab-Thr]] (X2-[Dab]T[dS][Dab][Dab][dF]T[Dab][Dab]T; lactam 4-C)
- MIC A. baumannii ATCC 19606 [1]: 0.12 µg/mL (≈ 0.102 µM)
- MIC E. coli ATCC 25922 [2]: 0.25 µg/mL (≈ 0.212 µM)
- MIC P. aeruginosa ATCC 27853 [3]: 2 µg/mL (≈ 1.7 µM)
- MIC S. epidermidis ATCC 12228 [4]: >128 µg/mL
- MIC K. pneumoniae ATCC BAA-2146 (NDM-1) [5]: 0.5 µg/mL (≈ 0.424 µM)
- IC50 at 72 h [6]: 160 ± 23.4 µg/mL (≈ 136 µM)

Structure (SMILES): CC[C@H](C)CCCCC(=O)N[C@@H](CCN)C(=O)N[C@H](C(=O)N[C@H](CO)C(=O)N[C@H]1CCNC(=O)[C@H]([C@@H](C)O)NC(=O)[C@H](CCN)NC(=O)[C@H](CCN)NC(=O)[C@H]([C@@H](C)O)NC(=O)[C@@H](CC(C)C)NC(=O)[C@H](CCN)NC1=O)[C@@H](C)O [Compound 58, (S)-6-methyloctanoyl-Dab-Thr-D-Ser-ring(4-10)[Dab-Dab-D-Leu-Thr-Dab-Dab-Thr]] (X2-[Dab]T[dS][Dab][Dab][dL]T[Dab][Dab]T; lactam 4-C)
- MIC A. baumannii ATCC 19606 [1]: 0.06 µg/mL (≈ 0.0524 µM)
- MIC E. coli ATCC 25922 [2]: 0.12 µg/mL (≈ 0.105 µM)
- MIC P. aeruginosa ATCC 27853 [3]: 2 µg/mL (≈ 1.75 µM)
- MIC S. epidermidis ATCC 12228 [4]: >128 µg/mL
- MIC K. pneumoniae ATCC BAA-2146 (NDM-1) [5]: 0.5 µg/mL (≈ 0.437 µM)
- IC50 at 72 h [6]: 189 ± 11.3 µg/mL (≈ 165 µM)

Structure (SMILES): CC[C@H](C)[C@@H]1NC(=O)[C@@H](CC(C)C)NC(=O)[C@H](CCN)NC(=O)[C@@H](NC(=O)[C@H](CCN)NC(=O)[C@@H](NC(=O)[C@H](CCN)NC(=O)CCCCC(C)C)[C@@H](C)O)CCNC(=O)[C@H]([C@@H](C)O)NC(=O)[C@H](CCN)NC(=O)[C@H](CCN)NC1=O [Compound 75, 6-methylheptanoyl-Dab-Thr-Dab-ring(4-10)[Dab-Dab-D-Leu-Ile-Dab-Dab-Thr]] ({Heptanoyl(6-Me)}-[Dab]T[Dab][Dab][Dab][dL]I[Dab][Dab]T; lactam 4-C)
- MIC A. baumannii ATCC 19606 [1]: 1 µg/mL (≈ 0.865 µM)
- MIC E. coli ATCC 25922 [2]: 1 µg/mL (≈ 0.865 µM)
- MIC P. aeruginosa ATCC 27853 [3]: 2 µg/mL (≈ 1.73 µM)
- MIC S. epidermidis ATCC 12228 [4]: 128 µg/mL (≈ 111 µM)
- MIC K. pneumoniae ATCC BAA-2146 (NDM-1) [5]: 1 µg/mL (≈ 0.865 µM)
- IC50 at 72 h [6]: 199 ± 13.1 µg/mL (≈ 172 µM)

Structure (SMILES): CC[C@H](C)CCCCC(=O)N[C@@H](CCN)C(=O)N[C@H](C(=O)N[C@H](CCN)C(=O)N[C@H]1CCNC(=O)[C@H]([C@@H](C)O)NC(=O)[C@H](CCN)NC(=O)[C@H](CCN)NC(=O)[C@H]([C@@H](C)O)NC(=O)[C@@H](CC(C)C)NC(=O)[C@H](CCN)NC1=O)[C@@H](C)O [Compound 30, (S)-6-methyloctanoyl-Dab-Thr-D-Dab-ring(4-10)[Dab-Dab-D-Leu-Thr-Dab-Dab-Thr]] (X2-[Dab]T[dDab][Dab][Dab][dL]T[Dab][Dab]T; lactam 4-C)
- MIC A. baumannii ATCC 19606 [1]: 1 µg/mL (≈ 0.864 µM)
- MIC E. coli ATCC 25922 [2]: 0.5 µg/mL (≈ 0.432 µM)
- MIC P. aeruginosa ATCC 27853 [3]: 1 µg/mL (≈ 0.864 µM)
- MIC S. epidermidis ATCC 12228 [4]: >128 µg/mL
- MIC K. pneumoniae ATCC BAA-2146 (NDM-1) [5]: 1 µg/mL (≈ 0.864 µM)
- IC50 at 72 h [6]: 145 ± 12.1 µg/mL (≈ 125 µM)

Structure (SMILES): CC[C@H](C)CCCCC(=O)N[C@@H](CCN)C(=O)N[C@H](C(=O)N[C@@H](CCN)C(=O)N[C@H]1CCNC(=O)[C@H]([C@@H](C)O)NC(=O)[C@H](CCN)NC(=O)[C@H](CCN)NC(=O)[C@H]([C@@H](C)CC)NC(=O)[C@@H](CC(C)C)NC(=O)[C@H](CCN)NC1=O)[C@@H](C)O [Compound 71, (S)-6-methyloctanoyl-Dab-Thr-Dab-ring(4-10)[Dab-Dab-D-Leu-Ile-Dab-Dab-Thr]] (X2-[Dab]T[Dab][Dab][Dab][dL]I[Dab][Dab]T; lactam 4-C)
- MIC A. baumannii ATCC 19606 [1]: 1 µg/mL (≈ 0.855 µM)
- MIC E. coli ATCC 25922 [2]: 1 µg/mL (≈ 0.855 µM)
- MIC P. aeruginosa ATCC 27853 [3]: 2 µg/mL (≈ 1.71 µM)
- MIC S. epidermidis ATCC 12228 [4]: 128 µg/mL (≈ 109 µM)
- MIC K. pneumoniae ATCC BAA-2146 (NDM-1) [5]: 1 µg/mL (≈ 0.855 µM)
- IC50 at 72 h [6]: 176 ± 14.7 µg/mL (≈ 151 µM)

Structure (SMILES): CC(C)CCCCC(=O)N[C@@H](CCN)C(=O)N[C@H](C(=O)N[C@@H](CCN)C(=O)N[C@H]1CCNC(=O)[C@H]([C@@H](C)O)NC(=O)[C@H](CCN)NC(=O)[C@H](CCN)NC(=O)[C@H](C(C)C)NC(=O)[C@@H](CC(C)C)NC(=O)[C@H](CCN)NC1=O)[C@@H](C)O [Compound 76, 6-methylheptanoyl-Dab-Thr-Dab-ring(4-10)[Dab-Dab-D-Leu-Val-Dab-Dab-Thr]] ({Heptanoyl(6-Me)}-[Dab]T[Dab][Dab][Dab][dL]V[Dab][Dab]T; lactam 4-C)
- MIC A. baumannii ATCC 19606 [1]: 1 µg/mL (≈ 0.876 µM)
- MIC E. coli ATCC 25922 [2]: 0.5 µg/mL (≈ 0.438 µM)
- MIC P. aeruginosa ATCC 27853 [3]: 2 µg/mL (≈ 1.75 µM)
- MIC S. epidermidis ATCC 12228 [4]: >128 µg/mL
- MIC K. pneumoniae ATCC BAA-2146 (NDM-1) [5]: 0.5 µg/mL (≈ 0.438 µM)
- IC50 at 72 h [6]: 225 ± 17 µg/mL (≈ 197 µM)

Structure (SMILES): CC[C@H](C)CCCCC(=O)N[C@@H](CCN)C(=O)N[C@H](C(=O)N[C@@H](CCN)C(=O)N[C@H]1CCNC(=O)[C@H]([C@@H](C)O)NC(=O)[C@H](CCN)NC(=O)[C@H](CCN)NC(=O)[C@H](CC(C)C)NC(=O)[C@@H](Cc2ccc(C#N)cc2)NC(=O)[C@H](CCN)NC1=O)[C@@H](C)O [Compound 13, (S)-6-methyloctanoyl-Dab-Thr-Dab-ring(4-10)[Dab-Dab-D-Phe(4-CN)-Lue-Dab-Dab-Thr]] (X2-[Dab]T[Dab][Dab][Dab][dPhe(4-CN)]L[Dab][Dab]T; lactam 4-C)
- MIC A. baumannii ATCC 19606 [1]: 0.25 µg/mL (≈ 0.203 µM)
- MIC E. coli ATCC 25922 [2]: 0.5 µg/mL (≈ 0.407 µM)
- MIC P. aeruginosa ATCC 27853 [3]: 2 µg/mL (≈ 1.63 µM)
- MIC S. epidermidis ATCC 12228 [4]: 16 µg/mL (≈ 13 µM)
- MIC K. pneumoniae ATCC BAA-2146 (NDM-1) [5]: 1 µg/mL (≈ 0.814 µM)
- IC50 at 72 h [6]: 186 ± 11.3 µg/mL (≈ 151 µM)

Structure (SMILES): CCCCCC(=O)CC(=O)N[C@@H](CCN)C(=O)N[C@H](C(=O)N[C@@H](CCN)C(=O)N[C@H]1CCNC(=O)[C@H]([C@@H](C)O)NC(=O)[C@H](CCN)NC(=O)[C@H](CCN)NC(=O)[C@H](CC(C)C)NC(=O)[C@@H](Cc2ccccc2)NC(=O)[C@H](CCN)NC1=O)[C@@H](C)O [Compound 5, 3-oxooctanoyl-Dab-Thr-Dab-ring(4-10)[Dab-Dab-D-Phe-Lue-Dab-Dab-Thr]] (X1-[Dab]T[Dab][Dab][Dab][dF]L[Dab][Dab]T; lactam 4-C)
- MIC A. baumannii ATCC 19606 [1]: 2 µg/mL (≈ 1.66 µM)
- MIC E. coli ATCC 25922 [2]: 0.5 µg/mL (≈ 0.415 µM)
- MIC P. aeruginosa ATCC 27853 [3]: 1 µg/mL (≈ 0.831 µM)
- MIC S. epidermidis ATCC 12228 [4]: 32 µg/mL (≈ 26.6 µM)
- MIC K. pneumoniae ATCC BAA-2146 (NDM-1) [5]: 0.5 µg/mL (≈ 0.415 µM)
- IC50 at 72 h [6]: 93.7 ± 7.38 µg/mL (≈ 77.9 µM)

Structure (SMILES): CC(C)CCCCC(=O)N[C@@H](CCN)C(=O)N[C@H](C(=O)N[C@H](CO)C(=O)N[C@H]1CCNC(=O)[C@H]([C@@H](C)O)NC(=O)[C@H](CCN)NC(=O)[C@H](CCN)NC(=O)[C@H]([C@@H](C)O)NC(=O)[C@@H](CC(C)C)NC(=O)[C@H](CCN)NC1=O)[C@@H](C)O [Compound 59, 6-methylheptanoyl-Dab-Thr-D-Ser-ring(4-10)[Dab-Dab-D-Leu-Thr-Dab-Dab-Thr]] ({Heptanoyl(6-Me)}-[Dab]T[dS][Dab][Dab][dL]T[Dab][Dab]T; lactam 4-C)
- MIC A. baumannii ATCC 19606 [1]: 0.12 µg/mL (≈ 0.106 µM)
- MIC E. coli ATCC 25922 [2]: 0.25 µg/mL (≈ 0.221 µM)
- MIC P. aeruginosa ATCC 27853 [3]: 2 µg/mL (≈ 1.77 µM)
- MIC S. epidermidis ATCC 12228 [4]: >128 µg/mL
- MIC K. pneumoniae ATCC BAA-2146 (NDM-1) [5]: 0.5 µg/mL (≈ 0.442 µM)
- IC50 at 72 h [6]: 318 ± 25.6 µg/mL (≈ 281 µM)
